Measurements from patent publication US20250042889A1, “3CLPRO PROTEASE INHIBITOR” (SHANGHAI QILU PHARMACEUTICAL RESEARCH AND DEVELOPMENT …, priority 2021, published 2025).

Molecular target: SARS-COV-2 3CLpro/Mpro protease (Severe acute respiratory syndrome coronavirus 2 (2019-nCoV) (SARS-CoV-2), UniProt P0DTD1)
Experiment: Inhibitory effect on SARS-COV-2 3CLpro/Mpro protease by fluorescence resonance energy transfer
Assay type: biochemical
Settings: activity intervals A-D, read-out: IC50 (nM), Inhibition on SARS-CoV-2 3CLpro/Mpro protease

Compound	IC50
C#C[C@@H]1C[C@@H](Nc2c(C(=O)N3C[C@@H](C)O[C@@H](C)C3)cc(Br)cc2[N+](=O)[O-])CN1C(=O)c1cncc(NC)c1 [Example 373]	50 to 100 nM
CNc1cncc(C(=O)N2C[C@H](Nc3c(C(=O)N4CCCC(F)(F)C4)cc(Br)cc3[N+](=O)[O-])[C@@H](OC)C2)c1 [Example 374]	10 to 50 nM
CNc1cncc(C(=O)N2C[C@H](Nc3c(C(=O)N4CCOC(F)(F)C4)cc(Br)cc3[N+](=O)[O-])[C@@H](OC)C2)c1 [Example 375]	10 to 50 nM
CNc1cncc(C(=O)N2C[C@H](Nc3c(C(=O)N4C[C@@H](C)O[C@@H](C)C4)cc(Br)cc3[N+](=O)[O-])C[C@H]2C(=O)N2CCOCC2)c1 [Example 376]	50 to 100 nM
CNc1cncc(C(=O)N2C[C@H](Nc3c(C(=O)N4C[C@@H](C)O[C@@H](C)C4)cc(Br)cc3[N+](=O)[O-])C[C@H]2C(=O)N(C)C)c1 [Example 377]	50 to 100 nM
CNc1cncc(C(=O)N2C[C@H](Nc3c(C(=O)N4C[C@@H](C)O[C@@H](C)C4)cc(Br)cc3[N+](=O)[O-])C[C@H]2C(=O)NC2CNC(=O)C2)c1 (stereo partly shown) [Example 378]	10 to 50 nM
CNc1cncc(C(=O)N2C[C@H](Nc3c(C(=O)N4C[C@@H](C)O[C@@H](C)C4)cc(Br)cc3[N+](=O)[O-])C[C@H]2C(N)=O)c1 [Example 379, (2S,4R)-4-((4-bromo-2-((2R,6S)-2,6-dimethylmorpholin-4-carbonyl)-6-nitrophenyl)amino)-1-(5-(methylamino)nicotinoyl) pyrrolidin-2-formamide]	10 to 50 nM
CNc1cncc(C(=O)N2C[C@H](Nc3c(C(=O)N4C[C@@H](C)O[C@@H](C)C4)cc(Br)cc3[N+](=O)[O-])CC2C(=O)NCC(F)(F)F)c1 (stereo partly shown) [Example 380]	10 to 50 nM
CNc1cncc(C(=O)N2C[C@H](Nc3c(C(=O)N4C[C@@H](C)O[C@@H](C)C4)cc(Br)cc3[N+](=O)[O-])C[C@H]2C(=O)N2CC(F)(F)C2)c1 [Example 382]	50 to 100 nM
CNc1cncc(C(=O)N2C[C@H](Nc3c(C(=O)N4C[C@@H](C)O[C@@H](C)C4)cc(Br)cc3[N+](=O)[O-])C[C@H]2C(=O)Nc2nn(C)cc2Br)c1 [Example 383, (2S,4R)—N-(4-bromo-1-methyl-1H-pyrazol-3-yl)-4-((4-bromo-2-((2R,6S)-2,6-dimethylmorpholin-4-carbonyl)-6-nitrophenyl)amino)-1-(5-(methylamino)nicotinoyl) pyrrolidin-2-formamide]	10 to 50 nM
CNc1cncc(C(=O)N2C[C@H](Nc3c(C(=O)N4C[C@@H](C)O[C@@H](C)C4)cc(Br)cc3[N+](=O)[O-])C[C@H]2C(=O)Nc2ccn(C)n2)c1 [Example 385]	10 to 50 nM
CNc1cncc(C(=O)N2C[C@H](Nc3c(C(=O)N4C[C@@H](C)O[C@@H](C)C4)cc(Br)cc3[N+](=O)[O-])C[C@H]2C(=O)N2CC(O)C2)c1 [Example 386]	50 to 100 nM
CNc1cncc(C(=O)N2C[C@H](Nc3c(C(=O)N4C[C@@H](C)O[C@@H](C)C4)cc(Br)cc3[N+](=O)[O-])C[C@H]2C(=O)Nc2ccccc2)c1 [Example 387]	10 to 50 nM
CNc1cncc(C(=O)N2C[C@H](Nc3c(C(=O)N4C[C@@H](C)O[C@@H](C)C4)cc(Br)cc3[N+](=O)[O-])C[C@H]2C(=O)NC2CC2)c1 [Example 388]	50 to 100 nM
CNc1cncc(C(=O)N2C[C@H](Nc3c(C(=O)N4C[C@@H](C)O[C@@H](C)C4)cc(Br)cc3[N+](=O)[O-])C[C@H]2C(=O)NCc2ccccc2)c1 [Example 390]	10 to 50 nM
CNc1cncc(C(=O)N2C[C@H](Nc3c(C(=O)N4C[C@@H](C)O[C@@H](C)C4)cc(Br)cc3[N+](=O)[O-])C[C@@H]2C#N)c1 [Example 391]	50 to 100 nM
CNc1cncc(C(=O)N2C[C@H](Nc3c(C(=O)N4C[C@@H](C)O[C@@H](C)C4)cc(Br)cc3[N+](=O)[O-])C[C@H]2C#Cc2cnn(C)c2)c1 [Example 392]	50 to 100 nM

Compound	IC50
CNc1cncc(C(=O)N2C[C@H](Nc3c(C(=O)N4C[C@@H](C)O[C@@H](C)C4)cc(Br)cc3[N+](=O)[O-])C[C@H]2C(=O)NC2CNC(=O)C2)c1 (stereo partly shown) [Example 393]	50 to 100 nM
CNc1cncc(C(=O)N2C[C@H](Nc3c(C(=O)N4C[C@@H](C)O[C@@H](C)C4)cc(Br)cc3[N+](=O)[O-])C[C@H]2C(=O)NCCOC)c1 [Example 394]	50 to 100 nM
CNc1cncc(C(=O)N2C[C@H](Nc3c(C(=O)N4C[C@@H](C)O[C@@H](C)C4)cc(Br)cc3[N+](=O)[O-])C[C@H]2C(=O)NCc2ccncc2)c1 [Example 395]	50 to 100 nM
CNc1cncc(C(=O)N2C[C@H](Nc3c(C(=O)N4C[C@@H](C)O[C@@H](C)C4)cc(Br)cc3[N+](=O)[O-])C[C@H]2c2nnco2)c1 [Example 396]	50 to 100 nM
CNc1cncc(C(=O)N2C[C@H](Nc3c(C(=O)N4C[C@@H](C)O[C@@H](C)C4)cc(Br)cc3[N+](=O)[O-])C[C@H]2C(=O)N[C@@H]2CCNC2=O)c1 [Example 397]	50 to 100 nM
CNc1cncc(C(=O)N2C[C@H](Nc3c(C(=O)N4C[C@@H](C)O[C@@H](C)C4)cc(Br)cc3[N+](=O)[O-])CC[C@H]2C#N)c1 [Example 398]	10 to 50 nM
CNc1cncc(C(=O)N2C[C@H](Nc3c(C(=O)N4C[C@@H](C)O[C@@H](C)C4)cc(Br)cc3[N+](=O)[O-])C[C@H]2C(=O)Nc2cc3cn(C)nc3cc2Cl)c1 [Example 399]	50 to 100 nM
CNc1cncc(C(=O)N2C[C@H](Nc3c(C(=O)N4C[C@@H](C)O[C@@H](C)C4)cc(Br)cc3[N+](=O)[O-])C[C@H]2C#Cc2cnoc2)c1 [Example 400]	100 to 200 nM
CNc1cncc(C(=O)N2C[C@H](Nc3c(C(=O)N4C[C@@H](C)O[C@@H](C)C4)cc(Br)cc3[N+](=O)[O-])C[C@H]2C(=O)Nc2cnn(C)c2)c1 [Example 401]	50 to 100 nM
CNc1cncc(C(=O)N2C[C@H](Nc3c(C(=O)N4C[C@@H](C)O[C@@H](C)C4)cc(Br)cc3[N+](=O)[O-])C[C@H]2C(=O)N[C@H]2CCOC2)c1 [Example 402]	50 to 100 nM
CNc1cncc(C(=O)N2C[C@H](Nc3c(C(=O)N4C[C@@H](C)O[C@@H](C)C4)cc(Br)cc3[N+](=O)[O-])CC[C@@H]2C#N)c1 [Example 403]	50 to 100 nM
CNc1cncc(C(=O)N2C[C@H](Nc3c(C(=O)N4C[C@@H](C)O[C@@H](C)C4)cc(Br)cc3[N+](=O)[O-])C[C@H]2C(=O)N[C@H]2CCN(CCOC)C2)c1 [Example 404]	100 to 200 nM
CNc1cncc(C(=O)N2C[C@H](Nc3c(C(=O)N4C[C@@H](C)O[C@@H](C)C4)cc(Br)cc3[N+](=O)[O-])[C@@H](OCCOC)C2)c1 [Example 405]	10 to 50 nM
CNc1cnc(F)c(C(=O)N2C[C@H](Nc3c(C(=O)N4C[C@@H](C)O[C@@H](C)C4)cc(Br)cc3[N+](=O)[O-])[C@@H](OC)C2)c1 [Example 406]	50 to 100 nM
CNc1cncc(C(=O)N2C[C@H](Nc3c(C(=O)N4C[C@@H](C)O[C@@H](C)C4)cc(Br)cc3[N+](=O)[O-])CC2C(=O)Nc2cc(Cl)n(C)n2)c1 (stereo partly shown) [Example 407]	50 to 100 nM
CO[C@H]1CN(C(=O)c2cncc3[nH]cnc23)C[C@@H]1Nc1c(C(=O)N2C[C@@H](C)O[C@@H](C)C2)cc(Br)cc1[N+](=O)[O-] [Example 408]	10 to 50 nM
CCn1cc(Br)c(NC(=O)[C@@H]2C[C@@H](Nc3c(C(=O)N4C[C@@H](C)O[C@@H](C)C4)cc(Br)cc3[N+](=O)[O-])CN2C(=O)c2cncc(NC)c2)n1 [Example 409]	50 to 100 nM
